Results as given in US20170029531A1, “INHIBITION OF LACTATE DEHYDROGENASE 5 (LDH-5) BINDING, INCORPORATION, INTERNALIZATION AND/OR ENDOCYTOSIS TO IMMUNE CELLS” (Seattle Children's Hospital (dba Seattle Children's …, priority 2014, published 2017).

How the values were obtained:
Tumor cells = assay: LDH-5 internalization by tumor cells, flow cytometry (FIGS. 16-19); assay type: cell-based; conditions: FIG. 16
Protocol: FIG. 17. Tumor cells internalize LDH-5, which can be reduced by antibody blocking. 10 ug/ml of LDH5 specific monoclonal antibody was added to cells 1 hour prior to culture with LDH5 as described above and evaluated for internalization using flow cytometry to evaluate fluorescence.
FIG. 19. LDH-5 internalization is receptor mediated and Clathrin dependent. LDH5 internalization is reduced with receptor mediated endocytosis inhibitors.
LDH5 internalization is reduced with receptor mediated endocytosis inhibitors. This supports that internalization is mediated by a specific receptor, as opposite to bulk phagocytosis.

[1] = LDH activity after freeze/thaw (colorimetric LDH activity assay); assay type: physicochemical; conditions: FIG. 12
Protocol: Supernatants and patient sera were analyzed for LDH enzymatic activity using a commercially available colorimetric assay according to the manufacturer's instructions (Sigma-Aldrich). Standard curves were generated using purified native LDH5.

T cells and NK cells = assay: Internalization of LDH-A488 by T cells and NK cells of human PBMC; assay type: cell-based; conditions: 10 ug/mL LDH-A488, 30 min, 37° C., IL-2 cultured PBMC
Protocol: FIG. 33. Human PBMC were isolated from healthy human blood via Ficoll gradient. PBMC were cultured for 24 h in RPMI+10% FBS supplemented with 1000 U/mL IL-2. Experimental wells were pulsed with 10 ug/mL LDH-A488 for 30 min (control wells received no LDH) at 37° C. Cells were treated for 2 min with 0.5M acetic acid+150 mM NaCl (pH 2.5), followed by 4 subsequent washes in RPMI+10% FBS. Cells were stained with antibodies directed against CD4, CD8, CD28, and CD95 to delineate T cell subsets (CD28+CD95−, Naïve, Na; CD28+CD95+, central memory, CM; CD28−CD95+, effector memory, EM) or against CD3, CD56, and CD16 to delineate NK cell subsets (CD3-CD56hiCD16−; CD3−CD56dimCD16−; CD3−CD56dimCD16+). Frequency and MFI of A488 was corrected against control (no LDH pulse). Shown are 10 data points: 2 patients on 2 different days (in duplicate), and 1 patient on one day in duplicate.
Human PBMC were isolated from healthy human blood via Ficoll gradient. PBMC were cultured for 24 h in RPMI+10% FBS supplemented with 1000 U/mL IL-2. Experimental wells were pulsed with 10 ug/mL LDH-A488 for 30 min (control wells received no LDH) at 37° C. Cells were treated for 2 min with 0.5M acetic acid+150 mM NaCl (pH 2.5), followed by 4 subsequent washes in RPMI+10% FBS. […]

## LDH5: purified native lactate dehydrogenase isoenzyme 5, alpha only tetramer; fluorescently labeled in uptake tests
Tumor cells
  Internalization of LDH-5 by tumor cells: internalize
[1]
  LDH-5 activity following freeze/thaw: significantly reduced
T cells and NK cells
  Internalization of LDH5 by T cells and NK cells: internalize
